Measured values: patent publication US20230320994A1, “FUNCTIONAL IONIZABLE PHOSPHOLIPIDS” (The Board of Regents of The University of Texas System, priority 2020, published 2023)

Test system: C57BL/6 mice
Test: In vivo tolerability: kidney and liver function markers
Conditions: 24 hours post injection, compared with PBS
Experimental: 10A1P16-MDOA (spleen specific) iPLNPs were administrated intravenously (IV) to C57BL/6 mice (0.25 mg kg−1). Lipopolysaccharide (LPS, 5 mg kg−1, IP) was used as the positive control and PBS (IV) was examined as the negative control. 24 hours post injection, kidney function (BUN and CREA) and liver function (ALT and AST) were evaluated. […] Data are presented as mean±s.d. (n=3 biologically independent mice). Statistical significance was analyzed by the two-tailed unpaired t-test: ****, P<0.0001; ***, P<0.001; **, P<0.01; *, P<0.05.

Lipopolysaccharide [LPS]
kidney function (BUN and CREA) and liver function (ALT and AST): severe kidney and liver injury
